How the values were obtained:
Experiment in all cases: combination Emax (second highest fraction inhibited in the dose matrix, 72 h); higher = more inhibition; extreme values may be limits of the assay
[1] = system: JiyoyeP-2003 (Burkitt's Lymphoma)
Summary of the method: (§1)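 Cell lines in DMEM/F12 or RPMI with 10% FBS were plated in 1536-well plates, held 24 hours at 37°C, 5% CO2, then given two-drug dose matrices for 72 hours (DMSO typically 0.2%). Viability was read by CellTiter-Glo 2.0 luminescence and scaled as inhibition from 0 (vehicle wells) to 1 (blank wells). Combination Emax is the second-highest inhibition in the matrix; Bliss excess is observed combination effect minus expected EA + EB − EA·EB, EA and EB being single-agent effects.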

[2] = system: MDA-MB-157 (Breast Carcinoma)
Summary of the method: as §1

[3] = system: KATOIII (Gastric Carcinoma)
Summary of the method: as §1

CAL-78 (Chondrosarcoma) = system: CAL-78 (Chondrosarcoma)
Summary of the method: as §1

[4] = system: U-266 (Plasma Cell Myeloma)
Summary of the method: as §1

[5] = system: SW1783 (Low Grade Glioma)
Summary of the method: as §1

[6] = system: EM-2 (Chronic Myelogenous Leukemia)
Summary of the method: as §1

NCI-H2595 (Mesothelioma) = system: NCI-H2595 (Mesothelioma)
Summary of the method: as §1

[7] = system: NCI-H1299 (Non-Small Cell Lung Carcinoma)
Summary of the method: as §1

[8] = system: HPAC (Pancreatic Carcinoma)
Summary of the method: as §1

[9] = system: CTV-1 (T-Lymphoblastic Leukemia)
Summary of the method: as §1

[10] = system: TE-5 (Esophageal Squamous Cell Carcinoma)
Summary of the method: as §1

SK-N-FI (Neuroblastoma) = system: SK-N-FI (Neuroblastoma)
Summary of the method: as §1

[11] = system: SNU-C5 (Colorectal Carcinoma)
Summary of the method: as §1

[12] = system: COR-L23 (Non-Small Cell Lung Carcinoma)
Summary of the method: as §1

[13] = system: OCI-AML2 (Acute Myeloid Leukemia)
Summary of the method: as §1

[14] = system: SW1990 (Pancreatic Carcinoma)
Summary of the method: as §1

[15] = system: MFH-ino (Other Solid Carcinomas)
Summary of the method: as §1

J82 (Bladder Carcinoma) = system: J82 (Bladder Carcinoma)
Summary of the method: as §1

[16] = system: NCI-H1694 (Small Cell Lung Carcinoma)
Summary of the method: as §1

| SMILES | combination Emax [1] | combination Emax [2] | combination Emax [3] | combination Emax (CAL-78 (Chondrosarcoma)) | combination Emax [4] | combination Emax [5] | combination Emax [6] | combination Emax (NCI-H2595 (Mesothelioma)) | combination Emax [7] | combination Emax [8] | combination Emax [9] | combination Emax [10] | combination Emax (SK-N-FI (Neuroblastoma)) | combination Emax [11] | combination Emax [12] | combination Emax [13] | combination Emax [14] | combination Emax [15] | combination Emax (J82 (Bladder Carcinoma)) | combination Emax [16] |
| --- | --- | --- | --- | --- | --- | --- | --- | --- | --- | --- | --- | --- | --- | --- | --- | --- | --- | --- | --- | --- |
| CN(C)CCCOc1ccc(-c2ccc3ncc4c(c3c2)n(C2CCOCC2)c(=O)n4C)cn1 [AZD0156] + O=C(c1cc(Cc2n[nH]c(=O)c3ccccc23)ccc1F)N1CCN(C(=O)C2CC2)CC1 [Olaparib] (first compound max 3 µM, partner max 3 µM) | 0.311 | 0.27 | 0.195 | 0.272 | 0.171 | 0.401 | 0.306 | 0.139 | 0.335 | 0.36 | 0.303 | 0.302 | 0.148 | 0.325 | 0.39 | 0.67 | 0.16 | 0.256 | 0.128 |  |
| C[C@@H]1COCCN1c1cc(C2([S@](C)(=N)=O)CC2)nc(-c2ccnc3[nH]ccc23)n1 [AZD6738] + O=C(c1cc(Cc2n[nH]c(=O)c3ccccc23)ccc1F)N1CCN(C(=O)C2CC2)CC1 [Olaparib] (first compound max 10 µM, 7x7, partner max 10 µM) | 0.944 | 0.85 | 0.341 | 0.616 | 0.584 | 0.407 | 0.984 | 0.214 | 0.666 | 0.416 | 0.916 | 0.442 | 0.701 | 0.696 | 0.42 | 0.988 | 0.471 | 0.576 | 0.344 | 0.734 |
| Cc1cc2ncnn2cc1Nc1ncc2c(n1)n(C1CCOCC1)c(=O)n2C [AZD7648] + CCN(CCO)CCCOc1ccc2c(Nc3cc(CC(=O)Nc4cccc(F)c4)[nH]n3)ncnc2c1 [AZD2811] (first compound max 10 µM, 7x7, partner max 1 µM) | 0.481 | 0.234 | 0.263 | 0.335 | 0.331 | 0.293 | 0.878 | 0.203 | 0.37 | 0.155 | 0.375 | 0.394 | 0.274 | 0.295 | 0.0476 | 0.702 | 0.201 | 0.415 | 0.126 | 0.273 |
| CCc1c2c(nc3ccc(O)cc13)-c1cc3c(c(=O)n1C2)COC(=O)[C@]3(O)CC [SN-38] + O=C(c1cc(Cc2n[nH]c(=O)c3ccccc23)ccc1F)N1CCN(C(=O)C2CC2)CC1 [Olaparib] (first compound max 0.3 µM, 7x7, partner max 10 µM) | 0.947 | 0.725 | 0.252 |  | 0.367 | 0.862 | 1 | 0.28 | 0.544 | 0.246 | 1 | 0.758 | 0.518 |  | 0.675 | 0.999 | 0.419 | 0.652 | 0.861 |  |
| CC(=O)c1c(C)c2cnc(Nc3ccc(N4CCNCC4)cn3)nc2n(C2CCCC2)c1=O [Palbociclib] + CN(CC[C@H](CSC1=CC=CC=C1)NC2=C(C=C(C=C2)S(=O)(=O)NC(=O)C3=CC=C(C=C3)N4CCC(CC4)[C@H](C5=CC=CC=C5C6=CC=C(C=C6)Cl)O)S(=O)(=O)C(F)(F)F)CCO [AZD4320] (first compound max 10 µM, 7x7, partner max 1 µM) | 0.795 |  |  | 0.709 |  |  | 0.95 |  |  | 0.497 | 0.94 |  |  | 0.388 | 0.298 |  |  |  | 0.22 | 0.941 |
| Cc1c2c(nn1C)CSCc1cc(n(C)n1)CSc1cc(c3ccccc3c1)OCCCc1c(C(=O)O)n(C)c3c-2c(Cl)ccc13 [AZD5991] + C1CN(CCC1(C(=O)N[C@@H](CCO)C2=CC=C(C=C2)Cl)N)C3=NC=NC4=C3C=CN4 [Capivasertib] (first compound max 1 µM, 7x7, partner max 3 µM) | 0.857 | 0.714 | 0.233 | 0.868 | 0.97 | 0.352 | 0.409 | 0.311 | 0.224 | 0.13 | 0.337 | 0.329 | 0.514 |  | 0.182 | 1 | 0.121 | 0.248 | 0.201 | 1 |
| CN(CCO)CC[C@H](CSc1ccccc1)Nc1ccc(S(=O)(=O)NC(=O)c2ccc(N3CCC([C@@H](O)c4ccccc4-c4ccc(Cl)cc4)CC3)cc2)cc1S(=O)(=O)C(F)(F)F [AZD4320] + C=CCn1c(=O)c2cnc(Nc3ccc(N4CCN(C)CC4)cc3)nc2n1-c1cccc(C(C)(C)O)n1 [AZD1775] (first compound max 1 µM, partner max 1 µM) | 0.992 | 0.67 | 0.206 | 0.846 | 0.95 | 0.531 | 0.99 | 0.141 | 0.88 | 1 |  | 0.663 | 0.629 | 0.619 | 0.656 | 1 | 0.757 | 0.237 | 0.117 | 0.906 |
| CN(CCO)CC[C@H](CSc1ccccc1)Nc1ccc(S(=O)(=O)NC(=O)c2ccc(N3CCC([C@@H](O)c4ccccc4-c4ccc(Cl)cc4)CC3)cc2)cc1S(=O)(=O)C(F)(F)F [AZD4320] + CN(C)CCCOc1ccc(-c2ccc3ncc4c(c3c2)n(C2CCOCC2)c(=O)n4C)cn1 [AZD0156] (first compound max 1 µM, 7x7, partner max 1 µM) | 0.645 | 0.0946 | 0.0663 |  | 0.506 | 0.52 | 0.968 | 0.12 | 0.149 | 0.371 | 0.211 | 0.43 | 0.17 | 0.225 | 0.0875 | 1 | 0.079 | 0.102 | 0.122 | 0.718 |
| C[C@@H](c1ccc2nccn2c1)n1nnc2ncc(-c3cnn(C)c3)nc21 [Savolitinib] + CN(CC[C@H](CSC1=CC=CC=C1)NC2=C(C=C(C=C2)S(=O)(=O)NC(=O)C3=CC=C(C=C3)N4CCC(CC4)[C@H](C5=CC=CC=C5C6=CC=C(C=C6)Cl)O)S(=O)(=O)C(F)(F)F)CCO [AZD4320] (first compound max 1 µM, 7x7, partner max 1 µM) | 0.439 |  |  | 0.457 |  |  | 0.971 |  |  | 0.343 | 0.455 |  |  | 0.173 | 0.184 |  |  |  | 0.604 | 0.622 |
| Cc1c2c(nn1C)CSCc1cc(n(C)n1)CSc1cc(c3ccccc3c1)OCCCc1c(C(=O)O)n(C)c3c-2c(Cl)ccc13 [AZD5991] + CN(C)CCCOc1ccc(-c2ccc3ncc4c(c3c2)n(C2CCOCC2)c(=O)n4C)cn1 [AZD0156] (first compound max 1 µM, 7x7, partner max 1 µM) | 0.756 | 0.69 | 0.182 | 0.786 | 0.919 | 0.218 | 0.394 | 0.328 | 0.368 | 0.586 | 0.301 | 0.266 | 0.443 | 0.196 |  | 0.961 | 0.241 | 0.22 | 0.22 | 0.98 |
| C=CCn1c(=O)c2cnc(Nc3ccc(N4CCN(C)CC4)cc3)nc2n1-c1cccc(C(C)(C)O)n1 [AZD1775] + C1CN(CCC1(C(=O)N[C@@H](CCO)C2=CC=C(C=C2)Cl)N)C3=NC=NC4=C3C=CN4 [Capivasertib] (first compound max 3 µM, partner max 3 µM) | 0.931 | 0.837 | 0.476 | 0.733 | 0.795 | 0.688 | 0.948 | 0.281 | 0.793 | 0.636 | 0.983 | 0.66 | 0.628 | 0.795 | 0.895 | 0.988 | 0.584 | 0.35 | 0.468 |  |
| COc1nnc2ccc(N3CCC(c4ccc(OCCN5CCN(C)C(=O)[C@H]5C)cc4)CC3)nn12 [AZD5153] + CN(CC[C@H](CSC1=CC=CC=C1)NC2=C(C=C(C=C2)S(=O)(=O)NC(=O)C3=CC=C(C=C3)N4CCC(CC4)[C@H](C5=CC=CC=C5C6=CC=C(C=C6)Cl)O)S(=O)(=O)C(F)(F)F)CCO [AZD4320] (first compound max 1 µM, 7x7, partner max 1 µM) | 0.893 |  |  | 0.8 |  |  | 0.988 |  |  | 0.713 | 0.933 |  |  | 0.569 | 0.424 |  |  |  | 0.397 | 1 |
| CN(CCO)CC[C@H](CSc1ccccc1)Nc1ccc(S(=O)(=O)NC(=O)c2ccc(N3CCC([C@@H](O)c4ccccc4-c4ccc(Cl)cc4)CC3)cc2)cc1S(=O)(=O)C(F)(F)F [AZD4320] + C[C@@H]1COCCN1C2=NC(=NC(=C2)C3(CC3)[S@](=N)(=O)C)C4=C5C=CNC5=NC=C4 [AZD6738] (first compound max 1 µM, 7x7, partner max 10 µM) | 0.972 | 0.94 | 0.474 | 0.861 | 0.834 | 0.669 | 0.988 | 0.214 |  | 0.897 | 0.822 | 0.77 | 0.765 | 0.854 | 0.621 | 1 | 0.845 | 0.51 | 0.524 | 0.974 |

From the supplement of paper PMC11061612
